Measurements from the supplement of paper PMC11451515.

Test system: P12-Ichikawa
Assay: cell viability relative to DMSO control; higher = less cytotoxic
Settings: 48 h
In short: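 Leukemia cells (NOMO1 or SEM, 500 cells/well; P12-Ichikawa, 1000 cells/well) were seeded in 5 μl in 1536-well plates after at least four passages of adaptation to each medium. They received library compounds in DMSO by pin dosing, 11 threefold points from 47 μM to 0.79 nM. Luminescence with CellTiter-Glo One was read after 48 h at 37°C. Viability is stated per plate relative to DMSO wells, with cell-free wells as background.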

[1] = HPLM + 10% dialyzed FBS, 0.000781 µM
[2] = HPLM + 10% dialyzed FBS, 0.00234 µM
[3] = HPLM + 10% dialyzed FBS, 0.00702 µM
[4] = HPLM + 10% dialyzed FBS, 0.0211 µM
[5] = HPLM + 10% dialyzed FBS, 0.0632 µM
[6] = HPLM + 10% dialyzed FBS, 0.19 µM
[7] = HPLM + 10% dialyzed FBS, 0.569 µM
[8] = HPLM + 10% dialyzed FBS, 1.71 µM
[9] = HPLM + 10% dialyzed FBS, 5.12 µM
[10] = HPLM + 10% dialyzed FBS, 15.4 µM
[11] = HPLM + 10% dialyzed FBS, 46.1 µM
[12] = RPMI 5 mM glucose + 10% FBS, 0.000781 µM
[13] = RPMI 5 mM glucose + 10% FBS, 0.00234 µM
[14] = RPMI 5 mM glucose + 10% FBS, 0.00702 µM
[15] = RPMI 5 mM glucose + 10% FBS, 0.0211 µM
[16] = RPMI 5 mM glucose + 10% FBS, 0.0632 µM
[17] = RPMI 5 mM glucose + 10% FBS, 0.19 µM
[18] = RPMI 5 mM glucose + 10% FBS, 0.569 µM
[19] = RPMI 5 mM glucose + 10% FBS, 1.71 µM
[20] = RPMI 5 mM glucose + 10% FBS, 5.12 µM
[21] = RPMI 5 mM glucose + 10% FBS, 15.4 µM
[22] = RPMI 5 mM glucose + 10% FBS, 46.1 µM
[23] = RPMI 5 mM glucose + 10% dialyzed FBS, 0.000781 µM
[24] = RPMI 5 mM glucose + 10% dialyzed FBS, 0.00234 µM
[25] = RPMI 5 mM glucose + 10% dialyzed FBS, 0.00702 µM
[26] = RPMI 5 mM glucose + 10% dialyzed FBS, 0.0211 µM
[27] = RPMI 5 mM glucose + 10% dialyzed FBS, 0.0632 µM
[28] = RPMI 5 mM glucose + 10% dialyzed FBS, 0.19 µM
[29] = RPMI 5 mM glucose + 10% dialyzed FBS, 0.569 µM
[30] = RPMI 5 mM glucose + 10% dialyzed FBS, 1.71 µM
[31] = RPMI 5 mM glucose + 10% dialyzed FBS, 5.12 µM
[32] = RPMI 5 mM glucose + 10% dialyzed FBS, 15.4 µM
[33] = RPMI 5 mM glucose + 10% dialyzed FBS, 46.1 µM

| SMILES | cell viability [1] [%] | cell viability [2] [%] | cell viability [3] [%] | cell viability [4] [%] | cell viability [5] [%] | cell viability [6] [%] | cell viability [7] [%] | cell viability [8] [%] | cell viability [9] [%] | cell viability [10] [%] | cell viability [11] [%] | cell viability [12] [%] | cell viability [13] [%] | cell viability [14] [%] | cell viability [15] [%] | cell viability [16] [%] | cell viability [17] [%] | cell viability [18] [%] | cell viability [19] [%] | cell viability [20] [%] | cell viability [21] [%] | cell viability [22] [%] | cell viability [23] [%] | cell viability [24] [%] | cell viability [25] [%] | cell viability [26] [%] | cell viability [27] [%] | cell viability [28] [%] | cell viability [29] [%] | cell viability [30] [%] | cell viability [31] [%] | cell viability [32] [%] | cell viability [33] [%] |
| --- | --- | --- | --- | --- | --- | --- | --- | --- | --- | --- | --- | --- | --- | --- | --- | --- | --- | --- | --- | --- | --- | --- | --- | --- | --- | --- | --- | --- | --- | --- | --- | --- | --- |
| CC(C)C[C@H](NC(=O)[C@@H](NC(=O)c1cccc(-c2ccccc2)n1)[C@@H](C)O)B(O)O | 101 | 114 | 112 | 112 | 45.1 | 7.04 | 6.52 | 6.5 | 3.21 | 1.52 | 1.32 | 103 | 118 | 123 | 110 | 17.8 | 7.41 | 6.75 | 6.12 | 4.81 | 2.62 | 1.65 | 99.4 | 109 | 122 | 124 | 53.2 | 7.76 | 6.76 | 6.66 | 5.34 | 2.52 | 1.55 |
| COc1cc2c(Oc3ccc(NC(=O)C4(C(=O)Nc5ccc(F)cc5)CC4)cc3F)ccnc2cc1OCCCN1CCOCC1 | 86.3 | 90.5 | 87 | 88.8 | 81.2 | 81.8 | 78.5 | 38.7 | 8.94 | 8.26 | 5.1 | 83.8 | 90.3 | 84.8 | 83.5 | 85.7 | 74.3 | 77.1 | 59.5 | 10 | 11 | 4.54 | 86.2 | 82.9 | 86.6 | 89.3 | 85.4 | 80 | 88.2 | 44.6 | 14.7 | 12.4 | 4.34 |
| N[S+](=O)([O-])c1cc(Cl)c(Cl)c([S+](N)(=O)[O-])c1 | 116 | 108 | 112 | 112 | 107 | 105 | 92.3 | 102 | 108 | 101 | 97.9 | 100 | 109 | 109 | 113 | 100 | 103 | 106 | 97.3 | 106 | 99.8 | 100 | 97.5 | 105 | 97 | 101 | 104 | 101 | 105 | 97.2 | 101 | 98 | 89.8 |
| CCOC(=O)N1CCN(/[N+]([O-])=N/Oc2ccc([N+](=O)[O-])cc2[N+](=O)[O-])CC1 | 93.7 | 94.7 | 96 | 97.1 | 98.2 | 102 | 101 | 97 | 95.5 | 96.9 | 27.1 | 91.6 | 96.5 | 88 | 90.6 | 102 | 99.2 | 99.8 | 97.1 | 84.3 | 78.7 | 19.9 | 92 | 83.9 | 87.7 | 88.3 | 88.4 | 86.4 | 90.1 | 85.9 | 82.8 | 82.8 | 18.8 |
| COc1cc(C(C)=O)ccc1OCCCN1CCC(c2noc3cc(F)ccc23)CC1 | 118 | 115 | 119 | 127 | 124 | 127 | 129 | 124 | 129 | 125 | 120 |  |  |  |  |  |  |  |  |  |  |  |  |  |  |  |  |  |  |  |  |  |  |
| CC(=O)O[C@@]1(CC[C@H]2[C@@H]3\C=C(C)/C4=C/C(=O)CC[C@]4(C)[C@H]3CC[C@]12C)C(C)=O | 99.7 | 115 | 109 | 114 | 109 | 117 | 112 | 112 | 115 | 106 | 89.1 | 101 | 107 | 110 | 117 | 115 | 117 | 120 | 109 | 100 | 99.5 | 85.5 | 94.9 | 102 | 101 | 112 | 103 | 108 | 106 | 107 | 98.2 | 93.2 | 79 |
| CC(=O)OCC(=O)[C@@]12\N=C(C)/O[C@@H]1C[C@H]3[C@@H]4CCC/5=C/C(=O)/C=C\[C@]5(C)[C@H]4[C@@H](O)C[C@]23C | 103 | 111 | 108 | 113 | 103 | 114 | 108 | 105 | 80.6 | 73 | 63.9 | 102 | 123 | 116 | 114 | 85.1 | 115 | 115 | 94.1 | 85.5 | 62.8 | 55 | 93.6 | 102 | 112 | 107 | 104 | 111 | 102 | 86.9 | 67.2 | 57.7 | 49.4 |
| CCOc1ccc(Nc2nc(-c3c(C)nc4ccccn34)cs2)cc1 | 117 | 116 | 116 | 103 | 53.8 | 19.3 | 26.3 | 24.1 | 16.3 | 14.5 | 9.9 | 116 | 121 | 129 | 109 | 72.8 | 16.7 | 19.6 | 19.6 | 22.3 | 17.5 | 9.84 | 104 | 116 | 110 | 108 | 94.2 | 28.9 | 29.6 | 30.3 | 27.3 | 28.1 | 14.8 |
